Activity calls are given as the source filed them. No cut-off for these calls is given here.
Test system: A549
Assay: Induction of apoptosis in human A549 cells after 72 hrs by Annexin-V-FITC/propidium iodide staining based flow cytometric analysis
Type: functional, cell-based
Conditions: not given

Row | Structure (SMILES) | Activity
1 | CCCSc1nc(Cl)c2c(n1)N(Cc1ccccc1)C(C(=O)N1CCN(C)CC1)N2 (configuration not stated) | Dose-dependent effect

Test system: A549
Assay: Anticlonogenic activity against human A549 cells after 10 days by crystal violet staining based assay
Type: functional, cell-based
Conditions: not given

Row | Structure (SMILES) | Activity
2 | CCCSc1nc(Cl)c2c(n1)N(Cc1ccccc1)C(C(=O)N1CCN(C)CC1)N2 (configuration not stated) | Dose-dependent effect

Test system: A549
Assay: Downregulation of vimentin expression in human A549 cells up to 2 uM after 72 hrs by Western blot analysis
Type: functional, cell-based
Conditions: not given

Row | Structure (SMILES) | Activity
3 | CCCSc1nc(Cl)c2c(n1)N(Cc1ccccc1)C(C(=O)N1CCN(C)CC1)N2 (configuration not stated) | Active

Test system: A549
Assay: Induction of apoptosis in human A549 cells assessed as reduction in Bcl-2 level up to 2 uM after 72 hrs by Western blot analysis
Type: functional, cell-based
Conditions: not given

Row | Structure (SMILES) | Activity
4 | CCCSc1nc(Cl)c2c(n1)N(Cc1ccccc1)C(C(=O)N1CCN(C)CC1)N2 (configuration not stated) | Active

Test system: MGC-803
Assay: Antiproliferative activity against human MGC803 cells after 72 hrs by MTT assay
Type: functional, cell-based
Conditions: MGC-803, 72 h

Row | Structure (SMILES) | IC50
5 | CCCSc1nc(Cl)c2c(n1)N(CCNC(=O)OC(C)(C)C)C(C(=O)N1CCN(C)CC1)N2 (configuration not stated) | 59.3 µM
6 | CCCSc1nc(Cl)c2c(n1)N(Cc1ccccc1)C(C(=O)NCCc1ccccc1)N2 (configuration not stated) | 46.9 µM
7 | CCCSc1nc(Cl)c2c(n1)N(Cc1ccccc1)C(C(=O)NCCCN1CCOCC1)N2 (configuration not stated) | > 64 µM
8 | CCCSc1nc(Cl)c2c(n1)N(Cc1ccccc1)C(C(=O)Nc1ccccc1)N2 (configuration not stated) | 58.4 µM
9 | CCCSc1nc(Cl)c2c(n1)N(Cc1ccccc1)C(C(=O)NCCNC(=O)OC(C)(C)C)N2 (configuration not stated) | > 64 µM
10 | O=c1[nH]cc(F)c(=O)[nH]1 [FLUOROURACIL] | 8.66 µM
11 | CCCSc1nc(Cl)c2c(n1)N(Cc1ccccc1)C(C(=O)NCCc1c[nH]c3ccccc13)N2 (configuration not stated) | 27 µM
12 | CCCSc1nc(Cl)c2c(n1)N(Cc1ccccc1)C(C(=O)N1CCSCC1)N2 (configuration not stated) | 31.3 µM
13 | CCCSc1nc(Cl)c2c(n1)N(Cc1ccccc1)C(C(=O)N1CCN(Cc3ccccc3)CC1)N2 (configuration not stated) | 51.2 µM
14 | CCCSc1nc(Cl)c2c(n1)N(Cc1ccccc1)C(C(=O)N1CCN(C)CC1)N2 (configuration not stated) | > 64 µM

Test system: A549
Assay: Anticlonogenic activity against human A549 cells at 1 uM after 10 days by crystal violet staining based assay relative to control
Type: functional
Conditions: not given

Row | Structure (SMILES) | Activity
15 | CCCSc1nc(Cl)c2c(n1)N(Cc1ccccc1)C(C(=O)N1CCN(C)CC1)N2 (configuration not stated) | 57%

Test system: A549
Assay: Induction of apoptosis in human A549 cells assessed as cell rounding at 2 uM after 72 hrs by Hoechst 33258 staining based fluorescence microscopic method
Type: functional
Conditions: not given

Row | Structure (SMILES) | Activity
16 | CCCSc1nc(Cl)c2c(n1)N(Cc1ccccc1)C(C(=O)N1CCN(C)CC1)N2 (configuration not stated) | Active

Test system: A549
Assay: Downregulation of N-cadherin expression in human A549 cells up to 2 uM after 72 hrs by Western blot analysis
Type: functional, cell-based
Conditions: not given

Row | Structure (SMILES) | Activity
17 | CCCSc1nc(Cl)c2c(n1)N(Cc1ccccc1)C(C(=O)N1CCN(C)CC1)N2 (configuration not stated) | Active

Test system: TE-1
Assay: Antiproliferative activity against human TE1 cells after 72 hrs by MTT assay
Type: functional, cell-based
Conditions: TE-1, 72 h

Row | Structure (SMILES) | IC50
18 | CCCSc1nc(Cl)c2c(n1)N(CCNC(=O)OC(C)(C)C)C(C(=O)N1CCN(C)CC1)N2 (configuration not stated) | 51.8 µM
19 | CCCSc1nc(Cl)c2c(n1)N(Cc1ccccc1)C(C(=O)NCCc1ccccc1)N2 (configuration not stated) | 31.2 µM
20 | CCCSc1nc(Cl)c2c(n1)N(Cc1ccccc1)C(C(=O)NCCCN1CCOCC1)N2 (configuration not stated) | 51.1 µM
21 | CCCSc1nc(Cl)c2c(n1)N(Cc1ccccc1)C(C(=O)Nc1ccccc1)N2 (configuration not stated) | > 64 µM
22 | CCCSc1nc(Cl)c2c(n1)N(Cc1ccccc1)C(C(=O)NCCNC(=O)OC(C)(C)C)N2 (configuration not stated) | > 64 µM
23 | O=c1[nH]cc(F)c(=O)[nH]1 [FLUOROURACIL] | 16.5 µM
24 | CCCSc1nc(Cl)c2c(n1)N(Cc1ccccc1)C(C(=O)NCCc1c[nH]c3ccccc13)N2 (configuration not stated) | 30 µM
25 | CCCSc1nc(Cl)c2c(n1)N(Cc1ccccc1)C(C(=O)N1CCSCC1)N2 (configuration not stated) | 47.8 µM
26 | CCCSc1nc(Cl)c2c(n1)N(Cc1ccccc1)C(C(=O)N1CCN(Cc3ccccc3)CC1)N2 (configuration not stated) | 48.2 µM
27 | CCCSc1nc(Cl)c2c(n1)N(Cc1ccccc1)C(C(=O)N1CCN(C)CC1)N2 (configuration not stated) | 42.5 µM

Test system: not listed separately
Assay: Selectivity index, ratio of IC50 for human GES-1 cells to IC50 for human A549 cells
Type: toxicity
Conditions: GES-1 cells versus A549 cells, read-out: Ratio IC50

Row | Structure (SMILES) | selectivity ratio
28 | CCCSc1nc(Cl)c2c(n1)N(Cc1ccccc1)C(C(=O)N1CCN(C)CC1)N2 (configuration not stated) | 108

Test system: A549
Assay: Antiinvasive activity in human A549 cells after 72 hrs by Hoechst 33258 staining based matrigel assay
Type: functional, cell-based
Conditions: not given

Row | Structure (SMILES) | Activity
29 | CCCSc1nc(Cl)c2c(n1)N(Cc1ccccc1)C(C(=O)N1CCN(C)CC1)N2 (configuration not stated) | Dose-dependent effect

Test system: A549
Assay: Antimigratory activity in human A549 cells after 72 hrs by Hoechst 33258 staining based transwell assay
Type: functional, cell-based
Conditions: not given

Row | Structure (SMILES) | Activity
30 | CCCSc1nc(Cl)c2c(n1)N(Cc1ccccc1)C(C(=O)N1CCN(C)CC1)N2 (configuration not stated) | Dose-dependent effect

Test system: PC-3
Assay: Antiproliferative activity against human PC3 cells after 72 hrs by MTT assay
Type: functional, cell-based
Conditions: PC-3, 72 h

Row | Structure (SMILES) | IC50
31 | CCCSc1nc(Cl)c2c(n1)N(CCNC(=O)OC(C)(C)C)C(C(=O)N1CCN(C)CC1)N2 (configuration not stated) | > 64 µM
32 | CCCSc1nc(Cl)c2c(n1)N(Cc1ccccc1)C(C(=O)NCCc1ccccc1)N2 (configuration not stated) | 41.3 µM
33 | CCCSc1nc(Cl)c2c(n1)N(Cc1ccccc1)C(C(=O)NCCCN1CCOCC1)N2 (configuration not stated) | 45.1 µM
34 | CCCSc1nc(Cl)c2c(n1)N(Cc1ccccc1)C(C(=O)Nc1ccccc1)N2 (configuration not stated) | > 64 µM
35 | CCCSc1nc(Cl)c2c(n1)N(Cc1ccccc1)C(C(=O)NCCNC(=O)OC(C)(C)C)N2 (configuration not stated) | 29.7 µM
36 | O=c1[nH]cc(F)c(=O)[nH]1 [FLUOROURACIL] | 12.3 µM
37 | CCCSc1nc(Cl)c2c(n1)N(Cc1ccccc1)C(C(=O)NCCc1c[nH]c3ccccc13)N2 (configuration not stated) | > 64 µM
38 | CCCSc1nc(Cl)c2c(n1)N(Cc1ccccc1)C(C(=O)N1CCSCC1)N2 (configuration not stated) | 47.9 µM
39 | CCCSc1nc(Cl)c2c(n1)N(Cc1ccccc1)C(C(=O)N1CCN(Cc3ccccc3)CC1)N2 (configuration not stated) | 57.3 µM
40 | CCCSc1nc(Cl)c2c(n1)N(Cc1ccccc1)C(C(=O)N1CCN(C)CC1)N2 (configuration not stated) | 29.8 µM

Test system: A549
Assay: Induction of apoptosis in human A549 cells assessed as induction of apoptotic bodies at 2 uM after 72 hrs by Hoechst 33258 staining based fluorescence microscopic method
Type: functional, cell-based
Conditions: not given

Row | Structure (SMILES) | Activity
41 | CCCSc1nc(Cl)c2c(n1)N(Cc1ccccc1)C(C(=O)N1CCN(C)CC1)N2 (configuration not stated) | Active

Test system: A549
Assay: Antimigratory activity in human A549 cells after 72 hrs by inverted microscopic based wound healing assay
Type: functional, cell-based
Conditions: not given

Row | Structure (SMILES) | Activity
42 | CCCSc1nc(Cl)c2c(n1)N(Cc1ccccc1)C(C(=O)N1CCN(C)CC1)N2 (configuration not stated) | Dose-dependent effect

Test system: A549
Assay: Induction of apoptosis in human A549 cells assessed as chromatin shrinkage at 2 uM after 72 hrs by Hoechst 33258 staining based fluorescence microscopic method
Type: functional, cell-based
Conditions: not given

Row | Structure (SMILES) | Activity
43 | CCCSc1nc(Cl)c2c(n1)N(Cc1ccccc1)C(C(=O)N1CCN(C)CC1)N2 (configuration not stated) | Active

Test system: A549
Assay: Induction of apoptosis in human A549 cells assessed as increase in Bax level up to 2 uM after 72 hrs by Western blot analysis
Type: functional, cell-based
Conditions: not given

Row | Structure (SMILES) | Activity
44 | CCCSc1nc(Cl)c2c(n1)N(Cc1ccccc1)C(C(=O)N1CCN(C)CC1)N2 (configuration not stated) | Active

Test system: A549
Assay: Up regulation of E-cadherin expression in human A549 cells up to 2 uM after 72 hrs by Western blot analysis
Type: functional, cell-based
Conditions: not given

Row | Structure (SMILES) | Activity
45 | CCCSc1nc(Cl)c2c(n1)N(Cc1ccccc1)C(C(=O)N1CCN(C)CC1)N2 (configuration not stated) | Active

Test system: GES1
Assay: Antiproliferative activity against human GES-1 cells after 72 hrs by MTT assay
Type: cell-based
Conditions: GES1, 72 h

Row | Structure (SMILES) | IC50
46 | O=c1[nH]cc(F)c(=O)[nH]1 [FLUOROURACIL] | 12.5 µM
47 | CCCSc1nc(Cl)c2c(n1)N(Cc1ccccc1)C(C(=O)N1CCN(C)CC1)N2 (configuration not stated) | 303 µM

Test system: A549
Assay: Antiproliferative activity against human A549 cells after 72 hrs by MTT assay
Type: functional, cell-based
Conditions: A549, 72 h

Row | Structure (SMILES) | IC50
48 | CCCSc1nc(Cl)c2c(n1)N(CCNC(=O)OC(C)(C)C)C(C(=O)N1CCN(C)CC1)N2 (configuration not stated) | 12.4 µM
49 | CCCSc1nc(Cl)c2c(n1)N(Cc1ccccc1)C(C(=O)NCCc1ccccc1)N2 (configuration not stated) | 36.7 µM
50 | CCCSc1nc(Cl)c2c(n1)N(Cc1ccccc1)C(C(=O)NCCCN1CCOCC1)N2 (configuration not stated) | 42.2 µM
51 | CCCSc1nc(Cl)c2c(n1)N(Cc1ccccc1)C(C(=O)Nc1ccccc1)N2 (configuration not stated) | 50.2 µM
52 | CCCSc1nc(Cl)c2c(n1)N(Cc1ccccc1)C(C(=O)NCCNC(=O)OC(C)(C)C)N2 (configuration not stated) | 53.2 µM
53 | O=c1[nH]cc(F)c(=O)[nH]1 [FLUOROURACIL] | 13.2 µM
54 | CCCSc1nc(Cl)c2c(n1)N(Cc1ccccc1)C(C(=O)NCCc1c[nH]c3ccccc13)N2 (configuration not stated) | 48.8 µM
55 | CCCSc1nc(Cl)c2c(n1)N(Cc1ccccc1)C(C(=O)N1CCSCC1)N2 (configuration not stated) | > 64 µM
56 | CCCSc1nc(Cl)c2c(n1)N(Cc1ccccc1)C(C(=O)N1CCN(Cc3ccccc3)CC1)N2 (configuration not stated) | 14.4 µM
57 | CCCSc1nc(Cl)c2c(n1)N(Cc1ccccc1)C(C(=O)N1CCN(C)CC1)N2 (configuration not stated) | 2.8 µM

— ChEMBL document CHEMBL4152199, “Discovery of 6-chloro-2-(propylthio)-8,9-dihydro-7H-purines containing a carboxamide moiety as potential selective anti-lung cancer agents” (Eur J Med Chem, 2018)
